Source: publication PMC5772648, “Targeted NUDT5 inhibitors block hormone signaling in breast cancer cells” (Nature Communications, 2018)
“And” between values parts separate entries of the source, which are not always exact repeats. Equal values may be shown once.

Tests used:
[1] = molecular target: T1, human NUDT5 (Homo sapiens, UniProt Q9UKK9); experiment: enzyme-coupled malachite green assay (MG assay), ADPR hydrolysis; type: biochemical; conditions: NUDT5, ADPR substrate; read-out: MG assay IC50 (Biochemical IC50)
T1 construct: His-tag (N); made in house; host or cells: E. coli BL21 (DE3) R3 pRARE2
Description: We next sought to develop small molecule NUDT5 inhibitors to further probe the role of NUDT5 in ADPR metabolism. A high-throughput, screening-compatible NUDT5 inhibition assay was established using slight modifications to the aforementioned MG procedure (Fig. 2a)[15],[27]. Briefly, ADPR, NUDT5 and calf intestinal alkaline phosphatase (CIP) were combined in a coupled enzymatic assay, as described in the online methods. In turn, ADPR was hydrolyzed to AMP and R5P by NUDT5, and the released R5P was further degraded to ribose and inorganic phosphate (Pi) by CIP. Free Pi was subsequently detected using the malachite green reagent. The screen was conducted using a combination of the Chemical Biology Consortium of Sweden (CBCS) primary screening set and several commercial libraries from Enamine, TimTec, Maybridge and ChemDiv. In total, ~72 000 distinct chemical entities were screened for their potential inhibition of NUDT5 at a concentration of 10 µM (Supplementary Table 1, Supplementary Fig. 2a, b). Execution of this screening campaign was split between two different occasions. The screening performance in the two screening campaigns was excellent (average z´ factors of 0.87 and 0.85, Supplementary Fig. 2c), resulting in a hit limit as defined by the average and three standard deviations of the library compound responses of 10.1 and 18.4% inhibition, respectively (Supplementary Table 1, Supplementary Fig. 2a, b). This translated to 53 and 475 hits (0.3 and 0.8% hit rate, respectively), yielding 528 total hits from the 2 separate screening occasions.
Activity of NUDT5 and MTH1 with a panel of potential substrates [2-OH-ATP, 2-OH-dATP, 8-oxo-dGDP, GDP and 8-oxo-GTP (Jena Biosciences), 8-oxo-dGTP (TriLink Biotechnologies), dATP (ThermoFisher Scientific), dGTP, GTP and ADPR (Sigma-Aldrich)] was assessed in reaction buffer (100 mM Tris Acetate pH 7.5, 40 mM NaCl, 10 mM Mg Acetate) at 22 °C. For ADPR, alkaline phosphatase from bovine intestinal mucosa (10 U/ml; Sigma-Aldrich) was added as coupled enzyme, while other substrates were coupled to E. coli pyrophosphatase (0.2 U/mL, Sigma-Aldrich). After 30 min incubation with shaking, formed inorganic phosphate was detected by addition of malachite green reagent. Absorbance at 630 nm was read after 15 min incubation with shaking using a Hidex Sense plate reader. The potency of NUDT5 inhibitors was assessed similarly as above (and in the screening campaign) by monitoring ADPR hydrolysis; details are in the Supplementary Information.
Small molecule library composition
The screen for NUDT5 inhibitors was conducted at Chemical Biology Consortium Sweden (www.cbcs.se). Two screening campaigns completed in August 2012 and in March 2013 respectively comprised a combination of in-house and commercially available libraries, amounting to a total of 75679 compounds. The commercial compounds originate from Enamine, TimTec, MayBridge and ChemDiv. The in-house libraries were donated by Biovitrum AB, Sweden (the origin and composition is described previously)2. For long-term storage, the compounds are kept frozen at - 20°C as 10 mM solutions in dimethyl sulfoxide (DMSO) under low humidity conditions in REMP 96 Storage Tube Racks in a REMP Small-Size Store™. To facilitate screening an aliquot of the stock solutions have been transferred to Labcyte 384 LDV plates (LP-0200) to enable dispensing using an Echo 550™ acoustic liquid handler (LabCyte). For both screening campaigns 40 nl of the compound solutions were dispensed directly into columns 1-22 of the 384-well assay plates (Nunc 242757), while columns 23 and 24 were reserved for controls as outlined below. The plates were sealed with a Peelable Aluminium seal (Agilent 24210-001) using a PlateLoc thermal microplate sealer (Agilent) and kept at room temperature until used. The final compound concentration in the screen was 10 µM with a final DMSO concentration of […]
Enzymatic assay applied for screening and hit confirmation […]

[2] = molecular target: T2, NUDT9 (Homo sapiens, UniProt Q9BW91); experiment: phosphohydrolase selectivity, malachite green assay; type: biochemical; conditions: 100 µM
T2 construct: His-tag (N); made in house; host or cells: E. coli BL21 (DE3) R3 pRARE2
T2 sequence (Q9BW91 47-350): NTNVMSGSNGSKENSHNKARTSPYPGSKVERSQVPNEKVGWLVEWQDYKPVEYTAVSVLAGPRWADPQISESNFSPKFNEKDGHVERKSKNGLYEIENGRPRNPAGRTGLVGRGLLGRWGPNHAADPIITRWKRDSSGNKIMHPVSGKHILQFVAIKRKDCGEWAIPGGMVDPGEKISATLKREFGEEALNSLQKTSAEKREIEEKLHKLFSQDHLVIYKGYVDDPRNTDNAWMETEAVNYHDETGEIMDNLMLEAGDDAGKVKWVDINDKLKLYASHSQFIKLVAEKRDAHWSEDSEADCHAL
Procedure: (§1) The selectivity assay for TH5427 against similar pyrophosphohydrolases was performed with MTH1, NUDT9, NUDT2, NUDT12, NUDT14, NUDT15, NUDT18, ITPase, dCTPase and dUTPase[9]. All analyses were performed by malachite green assay following 30 min incubation at room temperature in reaction buffer (100 mM Tris Acetate, pH 7.5, 40 mM NaCl, 10 mM MgAc, 1 mM DTT) with 100 µM TH5427 and preferred substrates for each enzyme (4.75 nM MTH1 with 100 µM dGTP, 8 nM NUDT15 with 100 µM dGTP, 8 nM NUDT2 with 16 µM AP4A, 2 nM NUDT5 with 50 µM ADPR, 20 nM NUDT9 with 50 µM ADPR, 20 nM NUDT12 with 50 µM NADH, 2 nM NUDT14 with 50 µM ADPR, 200 nM NUDT18 with 50 µM 8-oxo-dGTP, 0.2 nM ITPase with […], 35 nM dCTPase with 35 µM dCTP, and 1 nM dUTPase with 12.5 µM dUTP). MTH1, NUDT15, NUDT18, ITPase, dCTPase and dUTPase reactions were coupled with 0.2 U/mL pyrophosphatase, while NUDT2, NUDT5, NUDT9, NUDT12, and NUDT14 reactions were coupled by bovine intestinal phosphatase (10 U/mL).

[3] = molecular target: T3, NUDT12 (Homo sapiens, UniProt Q9BQG2); experiment: as above; type: biochemical
T3 construct: His-tag (N); made in house; host or cells: E. coli BL21 (DE3) R3 pRARE2
T3 sequence (Q9BQG2 whole entry): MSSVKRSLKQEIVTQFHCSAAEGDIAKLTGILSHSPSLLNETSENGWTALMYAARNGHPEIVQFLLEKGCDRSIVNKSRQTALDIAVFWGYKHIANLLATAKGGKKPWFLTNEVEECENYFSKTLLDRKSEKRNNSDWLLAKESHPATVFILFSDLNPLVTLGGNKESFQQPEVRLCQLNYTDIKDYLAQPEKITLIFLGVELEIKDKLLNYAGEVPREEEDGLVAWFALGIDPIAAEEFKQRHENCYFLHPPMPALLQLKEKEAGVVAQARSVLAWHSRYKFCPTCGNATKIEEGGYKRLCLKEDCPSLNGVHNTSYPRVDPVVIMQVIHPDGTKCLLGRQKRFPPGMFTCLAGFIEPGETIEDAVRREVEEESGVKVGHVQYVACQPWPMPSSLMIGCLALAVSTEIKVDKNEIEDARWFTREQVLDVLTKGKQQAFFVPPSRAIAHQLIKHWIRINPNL
Procedure: as §1

[4] = system: T47D cells; experiment: cell viability by resazurin; type: cell-based; conditions: 72 h
Procedure: Cell viability was assessed by resazurin[9]. 5000 HL-60 cells (or 1000 U-2 OS/2000 T47D cells) were seeded per well on a 96-well plate. The following morning, compounds (or the equivalent amount of DMSO) were added to obtain the final concentrations indicated and the cells were incubated at 37 °C for 72 h with resazurin added at 0.02 mg/mL for the last 2–6 h. Resorufin fluorescence was detected at […] with a Hidex Sense fluorescent plate reader. Viability curves were fit using the sigmoidal dose-response (variable slope) function in GraphPad Prism 7.

Structure (SMILES) | IC50 [1] | effect on NUDT9-mediated hydrolysis of ADPR [2] | inhibition at 100 µM [3] [%] | toxicity in T47D cells [4]
Cn1c(=O)c2c(nc(N3CCNCC3)n2Cc2nnc(-c3ccc(Cl)c(Cl)c3)o2)n(C)c1=O [TH5427] | 29.1 nM and 29 nM | no effect | 66 | generally non-toxic when used below 20 µM
CCN1CCN(c2nc3c(c(=O)n(C)c(=O)n3C)n2Cc2nnc(-c3ccc(Cl)c(Cl)c3)o2)CC1 [TH5424] | 39 nM | – | – | generally non-toxic when used below 20 µM
